Where two headings read alike, the source gives them in different places.
Legend:
[1] = biological target: T1, human liver FBPase (hlFBPase) (Homo sapiens, UniProt P09467); assay: Inhibition of Human Liver FBPase; assay type: biochemical
T1 construct: made in house; host or cells: E. coli BL21 (transformed strain from Dr. M. R. El-Maghrabi, SUNY Stony Brook)
T1 sequence (P09467 2-338 limits assumed): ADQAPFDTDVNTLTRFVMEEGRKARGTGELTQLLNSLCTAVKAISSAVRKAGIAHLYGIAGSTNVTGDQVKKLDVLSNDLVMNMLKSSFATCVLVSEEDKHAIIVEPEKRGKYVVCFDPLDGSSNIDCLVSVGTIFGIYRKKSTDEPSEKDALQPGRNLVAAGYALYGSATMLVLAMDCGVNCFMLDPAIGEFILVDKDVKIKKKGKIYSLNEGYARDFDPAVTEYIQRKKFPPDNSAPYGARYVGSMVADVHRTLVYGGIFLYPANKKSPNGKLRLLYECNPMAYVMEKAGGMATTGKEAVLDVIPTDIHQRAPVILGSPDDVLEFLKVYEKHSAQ
Procedure: (§1) Enzymatic activity was measured spectrophotometrically in reactions that coupled the formation of product (fructose 6-phosphate) to the reduction of dimethylthiazoldiphenyltetrazolium bromide (MTT) via NADP and phenazine methosulfate (PMS), using phosphoglucose isomerase and glucose 6-phosphate dehydrogenase as the coupling enzymes. Reaction mixtures (200 μL) were made up in 96-well microtitre plates, and consisted of 50 mM Tris-HCl, pH 7.4, 100 mM KCl, 5 mM EGTA, 2 mM MgCl2, 0.2 mM NADP, 1 mg/mL BSA, 1 mM MTT, 0.6 mM PMS, 1 unit/mL phosphoglucose isomerase, 2 units/mL glucose 6-phosphate dehydrogenase, and 0.150 mM substrate (fructose 1,6-bisphosphate). Inhibitor concentrations were varied from 0.01 μM to 10 μM. Reactions were started by the addition of 0.002 units of pure hlFBPase and were monitored for 7 minutes at 590 nm in a Molecular Devices Plate Reader (37° C.).

[2] = tested on: glucose production from lactate/pyruvate in isolated rat hepatocytes; assay: Inhibition of Gluconeogenesis in Rat Hepatocytes; assay type: cell-based
Procedure: Hepatocytes were prepared from overnight fasted Sprague-Dawley rats (250-300 g) according to the procedure of Berry and Friend (Berry, M. N., Friend, D. S., J. Cell. Biol. 1969, 43, 506-520) as modified by Groen (Groen, A. K., Sips, H. J., Vervoorn, R. C., Tager, J. M., Eur. J. Biochem. 1982, 122, 87-93). Hepatocytes (75 mg wet weight/mL) were incubated in 1 mL Krebs-bicarbonate buffer containing 10 mM Lactate, 1 mM pyruvate, 1 mg/mL BSA, and test compound concentrations from 1 to 500 μM. Incubations were carried out in a 95% oxygen, 5% carbon dioxide atmosphere in closed, 50-mL Falcon tubes submerged in a rapidly shaking water bath (37° C.). After 1 hour, an aliquot (0.25 mL) was removed, transferred to an Eppendorf tube and centrifuged. 50 μL of supernatant was then assayed for glucose content using a Sigma Glucose Oxidase kit as per the manufacturer's instructions.

Mouse liver FBPase = biological target: T2, Mouse liver FBPase (Mus musculus, UniProt Q9QXD6); assay: In vitro Inhibition of Mouse Liver FBPase; assay type: biochemical; conditions: partially purified mouse liver fraction, assayed as for human liver FBPase
T2 construct: Mouse liver FBPase is obtained by homogenizing freshly isolated mouse liver; from tissue; host or cells: freshly isolated mouse liver; 45-75% ammonium sulfate fraction, desalted
T2 sequence (Q9QXD6 2-338 limits assumed): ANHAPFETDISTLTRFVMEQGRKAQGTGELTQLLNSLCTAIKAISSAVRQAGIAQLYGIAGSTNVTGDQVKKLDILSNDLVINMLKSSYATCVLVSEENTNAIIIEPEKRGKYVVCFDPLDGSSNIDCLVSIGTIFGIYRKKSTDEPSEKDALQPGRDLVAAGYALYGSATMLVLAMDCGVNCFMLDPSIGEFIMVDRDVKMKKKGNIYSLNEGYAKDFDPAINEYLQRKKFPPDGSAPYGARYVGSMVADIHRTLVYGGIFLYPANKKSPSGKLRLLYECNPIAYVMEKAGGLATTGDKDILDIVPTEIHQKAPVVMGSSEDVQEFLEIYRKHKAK
Procedure: as §1, with “E. coli strain BL21 transformed with a human liver FBPase-encoding plasmid was obtained from Dr. M. R. El-Maghrabi at the State University of New York at Stony Brook. hIFBPase was typically purified from 10 liters of E. coli culture as described (M. Gidh-Jain et al., The Journal of Biological Chemistry 1994, 269, 27732-27738). Enzymatic” for “Enzymatic”
(§2) E. coli strain BL21 transformed with a rat liver FBPase-encoding plasmid is obtained from Dr. M. R. El-Maghrabi at the State University of New York at Stony Brook, and purified as described (El-Maghrabi, M. R., and Pilkis, S. J. Biochem. Biophys. Res. Commun. 1991, 176, 137-144). Mouse liver FBPase is obtained by homogenizing freshly isolated mouse liver in 100 mM Tris-HCl buffer, pH 7.4, containing 1 mM EGTA, and 10% glycerol. The homogenate is clarified by centrifugation, and the 45-75% ammonium sulfate fraction prepared. This fraction is redissolved in the homogenization buffer and desalted on a PD-10 gel filtration column (Biorad) eluted with same. This partially purified fraction is used for enzyme assays. Both rat liver and mouse liver FBPase are assayed as described for human liver FBPase. Generally, as reflected by the higher IC50 values, the rat and mouse liver enzymes are less sensitive to inhibition by the compounds tested than the human liver enzyme.

rat liver FBPase = biological target: T3, rat liver FBPase (Rattus norvegicus, UniProt P19112); assay: In vitro Inhibition of Rat Liver FBPase; assay type: biochemical; conditions: assayed as for human liver FBPase
T3 construct: made in house; host or cells: E. coli BL21 (transformed strain from Dr. M. R. El-Maghrabi, SUNY Stony Brook)
T3 sequence (P19112 2-363 limits assumed): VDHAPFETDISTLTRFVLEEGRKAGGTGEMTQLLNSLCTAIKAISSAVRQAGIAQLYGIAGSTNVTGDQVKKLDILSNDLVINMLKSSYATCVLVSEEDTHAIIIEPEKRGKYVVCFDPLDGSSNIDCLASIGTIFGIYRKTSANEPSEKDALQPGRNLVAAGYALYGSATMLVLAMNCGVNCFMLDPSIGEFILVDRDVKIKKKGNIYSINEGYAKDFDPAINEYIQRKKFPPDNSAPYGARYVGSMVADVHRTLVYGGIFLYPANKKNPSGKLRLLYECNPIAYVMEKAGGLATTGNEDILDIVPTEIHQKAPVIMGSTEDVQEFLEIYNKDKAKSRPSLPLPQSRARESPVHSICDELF
Procedure: as §1, with “E. coli strain BL21 transformed with a human liver FBPase-encoding plasmid was obtained from Dr. M. R. El-Maghrabi at the State University of New York at Stony Brook. hIFBPase was typically purified from 10 liters of E. coli culture as described (M. Gidh-Jain et al., The Journal of Biological Chemistry 1994, 269, 27732-27738). Enzymatic” for “Enzymatic”
as §2

[3] = 0.150 mM fructose 1,6-bisphosphate, pH 7.4, 37° C., read-out: HL FBPase IC50
[4] = Rattus norvegicus, Hepatocyte, 1 hour

Row | SMILES | IC50 [1, 3] | inhibition at 500 µM [2, 4] | IC50 (Mouse liver FBPase) | IC50 (rat liver FBPase) | other results
1 | Nc1cccc2cc(C(=O)NCP(=O)(O)O)[nH]c12 [Compound 1.1, 7-Amino-2-(phosphonomethylaminocarbonyl)indole] | 10 µM |  |  |  | dose-dependent inhibition of hlFBPase (FIG. 2) [1]: dose-dependent inhibition
2 | COc1ccc2[nH]c(C(=O)NCP(=O)(O)O)cc2c1 [Compound 1.3, Disodium 5-methoxy-2-(phosphonomethylaminocarbonyl)indole] | 60.6 µM | 3.4% |  |  | 
3 | Nc1cccc2c(-c3ccccc3)c(C(=O)NCP(=O)(O)O)[nH]c12 [Compound 2.1, 7-amino-3-phenyl-2-(phosphonomethylaminocarbonyl)indole] |  |  |  |  | dose-dependent inhibition of hlFBPase (FIG. 2) [1]: dose-dependent inhibition
4 | Nc1cccc2c(CCc3ccccc3)c(C(=O)NCP(=O)(O)O)[nH]c12 [Compound 3.1, 7-amino-3-(2-phenethyl)-2-(phosphonomethylaminocarbonyl)indole] |  | 41.5% |  |  | 
5 | O=P(O)(O)c1ccc(-c2cc3ccccc3[nH]2)o1 [Compound 5.1, 2-(2-(5-phosphono)furanyl)indole] | 8.8 µM | 39.6% | > 20 µM | > 20 µM | 
6 | CC(C)Cn1c(-c2ccc(P(=O)(O)O)o2)cc2ccccc21 [Compound 6.1, 1-isobutyl-2-(2-(5-phosphono)furanyl)indole] | 10.7 µM | 64.4% | > 20 µM | > 20 µM | dose dependent inhibition of glucose production in rat hepatocytes (FIG. 3) [2]: inhibit glucose production in a dose dependent manner
7 | O=P(O)(O)c1ccc(-c2[nH]c3ccccc3c2Br)o1 [Compound 7.1, 2-(2-(5-phosphono)furanyl)-3-bromoindole] | 8.67 µM | 45.4% | > 20 µM | > 20 µM | 
8 | O=P(O)(O)c1ccc(-c2[nH]c3ccccc3c2-c2ccccc2)o1 [Compound 7.2, 3-phenyl-2-(2-(5-phosphono)furanyl)indole] | 8.5 µM |  | > 20 µM | > 20 µM | 
9 | CC(C)Cn1c(-c2ccc(P(=O)(O)O)o2)cc2c(N)cccc21 [Compound 9.1, N^1-isobutyl-4-amino-2-(2-(5-phosphone)furanyl)indole] | 32.5 µM | 57% |  |  | dose dependent inhibition of glucose production in rat hepatocytes (FIG. 3) [2]: inhibit glucose production in a dose dependent manner
10 | CC(C)Cc1c(-c2ccc(P(=O)(O)O)o2)[nH]c2ccc(Cl)cc12 [Compound 10.1, 5-chloro-3-isobutyl-2-(2-(5-phosphono)furanyl)indole] | 2.5 µM |  |  |  | 
11 | O=P(O)(O)COCc1nc2ccccn2c1-c1ccccc1 [Compound 11.3, 9-aza-3-phenyl-2-phosphono-methoxymethylindole] | 10 µM |  |  |  | 
12 | Nc1cccn2c(-c3ccccc3)c(COCP(=O)(O)O)nc12 [Compound 11.5, 7-amino-9aza-3-phenyl-2-phosphonomethoxymethyl-indole] | 10 µM |  |  | 90 µM | inhibition at 250 µM ([2]; Rattus norvegicus, Hepatocyte, 250 μM, 1 hour): 50%
13 | O=C(NCP(=O)(O)O)c1cn2ccccc2n1 [Compound 12.1, 9-aza-2-phosphonomethylaminocarbonylindole] | 90 µM |  |  |  | 
14 | O=P(O)(O)c1ccc(-c2cn3cc(Cl)ccc3n2)o1 [Compound 14.2, 9-Aza-5-chloro-2-(2-(5-phosphono)furanyl)indole] | 4.5 µM |  |  |  | 
15 | Cc1cccn2c(CC(C)C)c(-c3ccc(P(=O)(O)O)o3)nc12 [Compound 14.4, 9-Aza-3-isobutyl-7-methyl-2-(2-(5-phosphono)furanyl)indole] | 1.6 µM |  | > 30 µM | > 25 µM | 
16 | Nc1ncnc2c1ncn2[C@@H]1O[C@H](COP(=O)(O)O)[C@@H](O)[C@H]1O [adenosine monophosphate (AMP), adenosine monophosphate, reference compound] |  |  |  |  | IC50 ([1]; under the reaction conditions of Example A, read-out: concentration required to inhibit half of the hlFBPase activity): 1 µM
